From publication PMC8155022 (Scientific Reports, 2021)
Like-named read-outs stand apart in the source and are kept apart here.

Tests used:
CaMKIδ(h) = molecular target: T1, CaMKIδ(h) (Homo sapiens, UniProt Q8IU85); experiment: Kinase panel; assay type: biochemical
T1 construct: purchased Cerep (receptors, ion channels, transporters); Eurofins Panlabs (kinases)
Protocol: (§1) Kinase selectivity was conducted by Eurofins Panlabs Inc (St Charles, MO).

[1] = test system: IMQ-induced skin inflammation in mice; experiment: imiquimod-induced dermal inflammation model; assay type: in vivo, mouse
PPARα = molecular target: T2, PPARα (Homo sapiens, UniProt Q07869); experiment: nuclear receptor cellular GAL4 reporter assay; assay type: cell-based; settings: agonist and antagonist mode; read-out: potency in agonist and antagonist mode
T2 construct: expressed in transfected cells

mouse whole blood = experiment: in vitro whole blood assay, IL-17A production; assay type: cell-based; settings: mouse whole blood diluted 1:4; read-out: IC50, inhibition of IL-17A production
GR = molecular target: T3, GR (Homo sapiens, UniProt P04150); experiment: nuclear receptor cellular GAL4 reporter assay; assay type: cell-based; settings: agonist and antagonist mode; read-out: potency in agonist and antagonist mode
T3 construct: expressed in transfected cells

5HT2B = 5HT2B (Homo sapiens, UniProt P41595); experiment: Cerep panel; assay type: binding; set-up: purchased Cerep (receptors, ion channels, transporters); Eurofins Panlabs (kinases)
Chain of 5HT2B (P41595 whole entry): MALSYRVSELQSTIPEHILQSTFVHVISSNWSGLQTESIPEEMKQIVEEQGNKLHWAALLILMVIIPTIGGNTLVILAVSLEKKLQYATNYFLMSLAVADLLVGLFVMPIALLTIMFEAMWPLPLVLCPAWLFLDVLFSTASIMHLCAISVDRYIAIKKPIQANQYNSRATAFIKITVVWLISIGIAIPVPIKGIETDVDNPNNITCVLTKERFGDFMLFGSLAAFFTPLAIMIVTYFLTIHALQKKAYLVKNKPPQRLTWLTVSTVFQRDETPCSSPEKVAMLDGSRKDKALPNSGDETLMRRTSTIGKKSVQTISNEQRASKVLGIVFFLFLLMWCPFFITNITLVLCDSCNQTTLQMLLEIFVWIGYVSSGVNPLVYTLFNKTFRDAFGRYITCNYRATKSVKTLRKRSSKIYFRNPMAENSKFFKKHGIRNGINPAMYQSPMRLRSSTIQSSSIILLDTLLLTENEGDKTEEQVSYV
Protocol: (§2) A panel of 52 different receptors, ion channels and transporters was tested by Cerep, Inc. (Redmond, WA).

VIP1 (h) (VPAC1) = molecular target: T4, VIP1 (h) (VPAC1) (Homo sapiens, UniProt P32241); experiment: Cerep panel; assay type: binding
T4 construct: purchased Cerep (receptors, ion channels, transporters); Eurofins Panlabs (kinases)
T4 sequence (P32241 31-457): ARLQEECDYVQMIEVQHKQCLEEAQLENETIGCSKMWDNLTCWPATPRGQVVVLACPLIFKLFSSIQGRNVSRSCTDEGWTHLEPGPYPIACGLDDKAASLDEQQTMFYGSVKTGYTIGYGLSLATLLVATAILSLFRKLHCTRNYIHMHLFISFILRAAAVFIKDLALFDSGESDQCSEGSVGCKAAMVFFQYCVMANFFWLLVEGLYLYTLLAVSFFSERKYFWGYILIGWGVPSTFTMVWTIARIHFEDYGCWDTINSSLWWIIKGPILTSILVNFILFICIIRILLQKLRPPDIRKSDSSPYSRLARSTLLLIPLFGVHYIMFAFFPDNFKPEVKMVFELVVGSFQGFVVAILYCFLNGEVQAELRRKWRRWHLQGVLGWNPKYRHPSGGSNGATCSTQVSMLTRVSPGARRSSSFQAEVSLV
Protocol: as §2

rabbit fetal development = experiment: rabbit embryo-fetal study; assay type: in vivo
Protocol: Therefore, SAD was dosed only up to 200 mg.

PKBα(h) = molecular target: T5, PKBα(h) (Homo sapiens, UniProt P31749); experiment: Kinase panel; assay type: biochemical
T5 construct: purchased Cerep (receptors, ion channels, transporters); Eurofins Panlabs (kinases)
T5 sequence (P31749 whole entry): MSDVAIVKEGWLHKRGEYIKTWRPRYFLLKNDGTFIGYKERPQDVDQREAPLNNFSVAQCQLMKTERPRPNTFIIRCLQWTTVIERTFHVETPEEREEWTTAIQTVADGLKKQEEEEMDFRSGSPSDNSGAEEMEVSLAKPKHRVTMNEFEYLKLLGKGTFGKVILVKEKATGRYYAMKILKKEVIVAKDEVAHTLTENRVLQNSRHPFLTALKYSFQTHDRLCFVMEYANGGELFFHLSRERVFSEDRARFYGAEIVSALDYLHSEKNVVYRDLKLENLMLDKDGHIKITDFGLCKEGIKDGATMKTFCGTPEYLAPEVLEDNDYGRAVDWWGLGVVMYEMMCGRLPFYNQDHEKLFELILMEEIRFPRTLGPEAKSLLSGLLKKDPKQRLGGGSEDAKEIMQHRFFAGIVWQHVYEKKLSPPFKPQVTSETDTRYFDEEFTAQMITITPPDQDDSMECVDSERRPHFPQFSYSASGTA
Protocol: as §1

[2] = phase 1 single ascending dose study, pharmacokinetics; assay type: in vivo, human; settings: for Tmax: median (range)
Protocol: Based on mean values, dose normalized overall exposure (AUC216h, AUC∞) also appeared to increase proportionally with dose.
Informed consent was obtained from all participants. No formal sample size and power calculations were performed.
Plasma samples with K2EDTA anticoagulant were treated with acetonitrile for protein extraction then processed with liquid chromatography coupled to tandem mass spectrometry. Reversed-phase HPLC separation was used and tandem MS/MS detection was set in TIS positive mode. […] All the data reported in sample analysis and validation met the predefined acceptance criteria and fulfilled the requirements and recommendations in the current FDA guidance for bioanalytical method validations and analysis.

M1 (h) = molecular target: T6, M1 (h) (Homo sapiens, UniProt P11229); experiment: Cerep panel; assay type: binding
T6 construct: purchased Cerep (receptors, ion channels, transporters); Eurofins Panlabs (kinases)
T6 sequence (P11229 whole entry): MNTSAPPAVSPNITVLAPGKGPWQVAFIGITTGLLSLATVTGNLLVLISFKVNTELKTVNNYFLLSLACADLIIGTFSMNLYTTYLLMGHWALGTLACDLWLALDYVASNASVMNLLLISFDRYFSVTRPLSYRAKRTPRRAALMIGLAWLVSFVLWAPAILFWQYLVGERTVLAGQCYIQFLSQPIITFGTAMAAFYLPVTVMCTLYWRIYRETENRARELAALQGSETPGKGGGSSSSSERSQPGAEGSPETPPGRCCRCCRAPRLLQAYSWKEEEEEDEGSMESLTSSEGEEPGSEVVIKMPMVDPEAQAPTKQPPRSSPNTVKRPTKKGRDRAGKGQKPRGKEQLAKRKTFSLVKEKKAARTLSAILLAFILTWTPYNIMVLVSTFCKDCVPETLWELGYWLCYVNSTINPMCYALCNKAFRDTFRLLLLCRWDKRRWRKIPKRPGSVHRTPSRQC
Protocol: as §2

ADRA1A = ADRA1A (Homo sapiens, UniProt P35348); experiment: GPCR panel, cAMP or calcium FLIPR assays; assay type: cell-based
Chain of ADRA1A (P35348 whole entry): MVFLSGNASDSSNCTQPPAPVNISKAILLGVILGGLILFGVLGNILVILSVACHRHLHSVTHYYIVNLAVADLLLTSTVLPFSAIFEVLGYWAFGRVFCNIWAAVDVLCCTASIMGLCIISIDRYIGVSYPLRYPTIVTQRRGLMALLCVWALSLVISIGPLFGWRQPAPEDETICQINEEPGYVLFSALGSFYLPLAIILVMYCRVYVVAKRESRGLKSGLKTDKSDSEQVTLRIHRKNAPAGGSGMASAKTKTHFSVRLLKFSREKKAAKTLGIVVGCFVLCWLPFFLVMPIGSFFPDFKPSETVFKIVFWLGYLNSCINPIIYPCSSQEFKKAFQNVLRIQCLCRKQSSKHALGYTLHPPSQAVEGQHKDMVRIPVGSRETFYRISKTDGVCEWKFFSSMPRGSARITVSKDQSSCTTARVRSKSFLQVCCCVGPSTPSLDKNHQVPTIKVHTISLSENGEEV
Protocol: (§3) 28 GPCRs were evaluated through cAMP or calcium FLIPR assays[67].

EGFR(h) = molecular target: T7, EGFR(h) (Homo sapiens, UniProt P00533); experiment: Kinase panel; assay type: biochemical
T7 construct: purchased Cerep (receptors, ion channels, transporters); Eurofins Panlabs (kinases)
Protocol: as §1

delta = delta (Homo sapiens, UniProt P41143); experiment: GPCR panel, cAMP or calcium FLIPR assays; assay type: cell-based
Chain of delta (P41143 whole entry): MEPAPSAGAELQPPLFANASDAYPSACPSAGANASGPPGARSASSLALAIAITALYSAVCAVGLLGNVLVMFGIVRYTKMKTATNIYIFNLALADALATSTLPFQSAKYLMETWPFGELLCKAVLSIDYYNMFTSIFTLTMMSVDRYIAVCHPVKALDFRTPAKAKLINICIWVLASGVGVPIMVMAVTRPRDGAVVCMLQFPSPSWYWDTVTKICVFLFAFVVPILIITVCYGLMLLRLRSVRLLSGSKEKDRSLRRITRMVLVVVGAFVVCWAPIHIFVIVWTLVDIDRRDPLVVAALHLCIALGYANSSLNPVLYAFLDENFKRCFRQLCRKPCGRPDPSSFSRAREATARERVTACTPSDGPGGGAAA
Protocol: as §3

A2A = A2A (Homo sapiens, UniProt P29274); experiment: GPCR panel, cAMP or calcium FLIPR assays; assay type: cell-based
Chain of A2A (P29274 whole entry): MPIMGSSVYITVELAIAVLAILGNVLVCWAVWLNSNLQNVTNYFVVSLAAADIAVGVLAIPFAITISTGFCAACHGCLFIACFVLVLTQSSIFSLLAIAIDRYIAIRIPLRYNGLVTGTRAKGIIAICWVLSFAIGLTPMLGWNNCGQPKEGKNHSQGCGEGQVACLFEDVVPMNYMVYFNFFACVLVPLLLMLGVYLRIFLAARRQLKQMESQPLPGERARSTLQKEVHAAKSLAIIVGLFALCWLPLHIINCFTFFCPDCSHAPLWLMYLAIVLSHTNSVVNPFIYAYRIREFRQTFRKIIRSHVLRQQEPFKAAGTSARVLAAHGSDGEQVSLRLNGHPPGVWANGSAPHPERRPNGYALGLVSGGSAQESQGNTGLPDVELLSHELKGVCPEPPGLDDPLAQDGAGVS
Protocol: as §3

5-HT1A (h) = molecular target: T8, 5-HT1A (h) (Homo sapiens, UniProt P08908); experiment: Cerep panel; assay type: binding
T8 construct: purchased Cerep (receptors, ion channels, transporters); Eurofins Panlabs (kinases)
T8 sequence (P08908 whole entry): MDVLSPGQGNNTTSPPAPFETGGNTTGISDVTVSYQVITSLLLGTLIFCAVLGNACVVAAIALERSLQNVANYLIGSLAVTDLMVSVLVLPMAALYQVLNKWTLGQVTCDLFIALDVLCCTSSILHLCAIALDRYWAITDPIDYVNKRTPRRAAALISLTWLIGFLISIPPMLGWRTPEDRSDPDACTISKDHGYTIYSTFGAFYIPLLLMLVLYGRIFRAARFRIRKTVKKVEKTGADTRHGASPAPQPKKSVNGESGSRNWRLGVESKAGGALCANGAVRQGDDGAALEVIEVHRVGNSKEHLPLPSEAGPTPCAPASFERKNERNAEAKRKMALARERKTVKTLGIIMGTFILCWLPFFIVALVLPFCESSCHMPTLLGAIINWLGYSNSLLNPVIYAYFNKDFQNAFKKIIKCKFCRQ
Protocol: as §2

ALK4(h) = molecular target: T9, ALK4(h) (Homo sapiens, UniProt P36896); experiment: Kinase panel; assay type: biochemical
T9 construct: purchased Cerep (receptors, ion channels, transporters); Eurofins Panlabs (kinases)
T9 sequence (P36896 24-505): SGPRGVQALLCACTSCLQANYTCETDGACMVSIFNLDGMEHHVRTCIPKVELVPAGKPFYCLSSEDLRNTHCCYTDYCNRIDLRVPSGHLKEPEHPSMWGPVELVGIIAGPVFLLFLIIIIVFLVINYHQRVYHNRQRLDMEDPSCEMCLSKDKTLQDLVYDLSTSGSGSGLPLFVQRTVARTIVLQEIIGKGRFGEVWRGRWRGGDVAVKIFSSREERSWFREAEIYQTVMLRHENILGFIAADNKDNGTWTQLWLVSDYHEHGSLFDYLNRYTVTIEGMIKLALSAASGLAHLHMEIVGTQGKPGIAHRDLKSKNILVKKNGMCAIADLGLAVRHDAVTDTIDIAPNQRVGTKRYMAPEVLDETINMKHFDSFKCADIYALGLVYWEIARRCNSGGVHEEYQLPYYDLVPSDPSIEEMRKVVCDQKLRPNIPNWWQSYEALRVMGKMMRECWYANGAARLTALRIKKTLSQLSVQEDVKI
Protocol: 28 GPCRs were evaluated through cAMP or calcium FLIPR assays[67]. A panel of 52 different receptors, ion channels and transporters was tested by Cerep, Inc. (Redmond, WA). Kinase selectivity was conducted by Eurofins Panlabs Inc (St Charles, MO).

RXRα = molecular target: T10, RXRα (Homo sapiens, UniProt P19793); experiment: nuclear receptor cellular GAL4 reporter assay; assay type: cell-based; settings: agonist and antagonist mode; read-out: potency in agonist and antagonist mode
T10 construct: expressed in transfected cells
T10 sequence (P19793 whole entry, the tested form may be a part): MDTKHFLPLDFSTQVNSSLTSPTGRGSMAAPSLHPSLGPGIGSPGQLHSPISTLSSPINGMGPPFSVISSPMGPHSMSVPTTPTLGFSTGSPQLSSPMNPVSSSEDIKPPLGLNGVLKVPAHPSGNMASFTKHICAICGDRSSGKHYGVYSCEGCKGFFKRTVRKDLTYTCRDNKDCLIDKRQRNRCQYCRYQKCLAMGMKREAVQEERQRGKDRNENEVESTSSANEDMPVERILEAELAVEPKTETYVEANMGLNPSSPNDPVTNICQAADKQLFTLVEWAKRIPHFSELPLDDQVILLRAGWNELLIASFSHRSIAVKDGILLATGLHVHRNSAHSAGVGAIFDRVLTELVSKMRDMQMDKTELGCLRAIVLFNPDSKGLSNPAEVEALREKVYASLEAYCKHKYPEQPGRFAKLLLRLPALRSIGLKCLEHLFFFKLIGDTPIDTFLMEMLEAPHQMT

[3] = both sexes, human, plasma, po, 10 mg, 10 mg single oral dose, fasted, n=6, mean (SD)
[4] = both sexes, human, plasma, po, 30 mg, 30 mg single oral dose, fasted, n=6, mean (SD)
[5] = both sexes, human, plasma, po, 100 mg, 100 mg single oral dose, fasted, n=9, mean (SD)
[6] = both sexes, human, plasma, po, 100 mg, 100 mg single oral dose, fed, n=9, mean (SD)
[7] = both sexes, human, plasma, po, 200 mg, 200 mg single oral dose, fasted, n=6, mean (SD)

T1 sequence (Q8IU85 whole entry): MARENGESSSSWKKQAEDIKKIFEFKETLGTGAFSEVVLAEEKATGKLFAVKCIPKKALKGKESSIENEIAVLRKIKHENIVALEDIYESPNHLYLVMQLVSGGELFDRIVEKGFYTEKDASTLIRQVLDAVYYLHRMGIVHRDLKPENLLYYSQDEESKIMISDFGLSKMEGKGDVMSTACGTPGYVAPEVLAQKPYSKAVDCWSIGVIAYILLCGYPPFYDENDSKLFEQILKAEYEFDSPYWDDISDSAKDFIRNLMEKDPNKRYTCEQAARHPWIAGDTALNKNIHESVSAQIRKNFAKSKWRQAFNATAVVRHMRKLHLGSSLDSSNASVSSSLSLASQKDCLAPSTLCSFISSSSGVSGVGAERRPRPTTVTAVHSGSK

SMILES: CC1CCCN1C(=O)c1nc(C(=O)NCC(C)(C)O)sc1-c1ccc(C(O)(C(F)(F)F)C(F)(F)F)c(Cl)c1Cl (centres unmarked) [JNJ-61803534]
- activity at 1 µM (CaMKIδ(h)): 81%
- activity at 10 µM (CaMKIδ(h)): 100%
- IL-17A and IL-17F expression ([1]; 30 mg/kg, ears, RNA level): trend towards inhibition
- IMQ-induced neutrophils and inflammatory monocytes infiltrations in the ear ([1]; 100 mg/kg): significantly reduced
- IMQ-induced expression of IL-17A, IL-17F, and IL-22 genes ([1]; 100 mg/kg, ears, RNA level): significantly inhibited
- disease scores (thickness, redness, scaling) of back skin ([1]; 30 and 100 mg/kg oral, dose-dependent): significantly reduced
- IL-10 expression ([1]; 30 and 100 mg/kg, RNA level): not inhibited
- IL-23R expression ([1]; 30 and 100 mg/kg, RNA level): trend towards inhibition
- IFNγ expression ([1]; RNA level): minimally impacted
- IL-17A- and IL-17A/IL-22-producing γδ T cell populations ([1]; ear skin and draining lymph nodes, dose-dependent): reduced
- IC50 (PPARα): > 1.5 µM
- IC50 (mouse whole blood): 0.172 ± 0.05 µM
- IC50 (GR): > 1.5 µM
- inhibition at 1 µM (5HT2B): < 10%
- inhibition at 10 µM (5HT2B): 36.8%
- inhibition at 1 µM (VIP1 (h) (VPAC1)): < 10%
- inhibition at 10 µM (VIP1 (h) (VPAC1)): < 10%
- effect on fetal development (rabbit fetal development): fetal development was impacted
- activity at 1 µM (PKBα(h)): 97%
- activity at 10 µM (PKBα(h)): 95%
- Tmax ([2]; 100 mg single oral dose, fed, n=9): 12 h
- AUC(0-inf) [2, 3]: 8480 ng·h/mL
- Cmax [2, 3]: 35.9 ng/mL
- AUC(0-t) ([2]; both sexes, human, plasma, po, 10 mg, 10 mg single oral dose, fasted, n=6, mean (SD), read-out: AUC216h): 5180 ng·h/mL
- half-life ([2]; both sexes, human, plasma, po, 10 mg, 10 mg single oral dose, fasted, n=6, mean (SD), read-out: t1/2 (converted)): 168 h
- Tmax ([2]; both sexes, human, plasma, po, 10 mg, 10 mg single oral dose, fasted, n=6, read-out: tmax): 10 h
- AUC(0-inf) [2, 4]: 28700 ng·h/mL
- Cmax [2, 4]: 146 ng/mL
- AUC(0-t) ([2]; both sexes, human, plasma, po, 30 mg, 30 mg single oral dose, fasted, n=6, mean (SD), read-out: AUC216h): 17400 ng·h/mL
- half-life ([2]; both sexes, human, plasma, po, 30 mg, 30 mg single oral dose, fasted, n=6, mean (SD), read-out: t1/2 (converted)): 170 h
- Tmax ([2]; both sexes, human, plasma, po, 30 mg, 30 mg single oral dose, fasted, n=6, read-out: tmax): 6.02 h
- AUC(0-inf) [2, 5]: 100000 ng·h/mL
- Cmax [2, 5]: 700 ng/mL
- AUC(0-t) ([2]; both sexes, human, plasma, po, 100 mg, 100 mg single oral dose, fasted, n=9, mean (SD), read-out: AUC216h): 68400 ng·h/mL
- AUC(0-t) ([2]; both sexes, human, plasma, po, 100 mg, 100 mg single oral dose, fasted, n=9, mean (SD), read-out: AUClast): 99100 ng·h/mL
- half-life ([2]; both sexes, human, plasma, po, 100 mg, 100 mg single oral dose, fasted, n=9, mean (SD), read-out: t1/2 (converted)): 170 h
- Tmax ([2]; both sexes, human, plasma, po, 100 mg, 100 mg single oral dose, fasted, n=9, read-out: tmax): 6 h
- AUC(0-inf) [2, 6]: 90400 ng·h/mL
- Cmax [2, 6]: 602 ng/mL
- AUC(0-t) ([2]; both sexes, human, plasma, po, 100 mg, 100 mg single oral dose, fed, n=9, mean (SD), read-out: AUC216h): 61700 ng·h/mL
- AUC(0-t) ([2]; both sexes, human, plasma, po, 100 mg, 100 mg single oral dose, fed, n=9, mean (SD), read-out: AUClast): 89700 ng·h/mL
- half-life ([2]; both sexes, human, plasma, po, 100 mg, 100 mg single oral dose, fed, n=9, mean (SD), read-out: t1/2 (converted)): 168 h
- Tmax ([2]; both sexes, human, plasma, po, 100 mg, 100 mg single oral dose, fed, n=9, read-out: tmax): 12 h
- AUC(0-inf) [2, 7]: 201000 ng·h/mL
- Cmax [2, 7]: 1810 ng/mL
- AUC(0-t) ([2]; both sexes, human, plasma, po, 200 mg, 200 mg single oral dose, fasted, n=6, mean (SD), read-out: AUC216h): 154000 ng·h/mL
- AUC(0-t) ([2]; both sexes, human, plasma, po, 200 mg, 200 mg single oral dose, fasted, n=6, mean (SD), read-out: AUClast): 200000 ng·h/mL
- half-life ([2]; both sexes, human, plasma, po, 200 mg, 200 mg single oral dose, fasted, n=6, mean (SD), read-out: t1/2 (converted)): 164 h
- Tmax ([2]; both sexes, human, plasma, po, 200 mg, 200 mg single oral dose, fasted, n=6, read-out: tmax): 6 h
- half-life ([2]; both sexes, human, plasma, po, single oral doses 10 to 200 mg, read-out: plasma half-life, mean T1/2 values across the dose groups): 164 to 170 h
- inhibition at 1 µM (M1 (h)): < 10%
- inhibition at 10 µM (M1 (h)): < 10%
- EC50 (ADRA1A; agonist): > 10 µM
- IC50 (ADRA1A; antagonist): > 10 µM
- activity at 1 µM (EGFR(h)): 100%
- activity at 10 µM (EGFR(h)): 101%
- EC50 (delta; agonist): > 12.5 µM
- IC50 (delta; antagonist): > 12.5 µM
- EC50 (A2A; agonist): > 12.5 µM
- IC50 (A2A; antagonist): > 12.5 µM
- inhibition at 1 µM (5-HT1A (h)): < 10%
- inhibition at 10 µM (5-HT1A (h)): < 10%
- activity at 1 µM (ALK4(h)): 104%
- activity at 10 µM (ALK4(h)): 108%
- IC50 (RXRα): > 1.5 µM
